Assay results from PubChem BioAssay (NCI).
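Dose response: 5 concentrations. Exposure: 48 h. Format: 96-well plates. Endpoint: linear interpolation; highest concentration if not reached. GI50 is the concentration that inhibits growth by half. TGI: concentration producing complete growth inhibition.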

Columns and labels:
Test in all cases: growth of human tumour cells (NCI), 48 h
SK-MEL-2 melanoma = test system: SK-MEL-2 melanoma
SW-620 colon = test system: SW-620 colon
HOP-62 NSCLC = test system: HOP-62 NSCLC
HCT-116 colon = test system: HCT-116 colon
CCRF-CEM leukemia = test system: CCRF-CEM leukemia
SF-295 CNS = test system: SF-295 CNS
SF-268 CNS = test system: SF-268 CNS
BT-549 breast = test system: BT-549 breast
A549 NSCLC = test system: A549 NSCLC
OVCAR-5 ovarian = test system: OVCAR-5 ovarian
HS 578T breast = test system: HS 578T breast
DU-145 prostate = test system: DU-145 prostate
MCF7 breast = test system: MCF7 breast
786-0 renal = test system: 786-0 renal
SK-MEL-5 melanoma = test system: SK-MEL-5 melanoma
T-47D breast = test system: T-47D breast
SNB-75 CNS = test system: SNB-75 CNS
CAKI-1 renal = test system: CAKI-1 renal
RPMI-8226 leukemia = test system: RPMI-8226 leukemia
U251 CNS = test system: U251 CNS
MALME-3M melanoma = test system: MALME-3M melanoma
RXF 393 renal = test system: RXF 393 renal
IGROV1 ovarian = test system: IGROV1 ovarian
KM12 colon = test system: KM12 colon
K-562 leukemia = test system: K-562 leukemia
MDA-MB-468 breast = test system: MDA-MB-468 breast
TK-10 renal = test system: TK-10 renal
PC-3 prostate = test system: PC-3 prostate
NCI-H23 lung = test system: NCI-H23 lung
HCT-15 colon = test system: HCT-15 colon

Structure (SMILES): Cc1ccc(O)cc1Nc1nc(SCCN2CCOCC2)nc2c1cnn2CC(Cl)c1ccc(Br)cc1 (centres undefined)
- TGI (SK-MEL-2 melanoma): 24.5 µM
- GI50 (SW-620 colon): 14.6 µM
- TGI (SW-620 colon): 78.1 µM
- GI50 (HOP-62 NSCLC): 4.41 µM
- TGI (HOP-62 NSCLC): 30.2 µM
- GI50 (HCT-116 colon): 3.46 µM
- TGI (HCT-116 colon): 13.3 µM
- GI50 (CCRF-CEM leukemia): 4.03 µM
- TGI (CCRF-CEM leukemia): 39.1 µM
- GI50 (SF-295 CNS): 2.36 µM
- TGI (SF-295 CNS): 12 µM
- GI50 (SF-268 CNS): 7.04 µM
- TGI (SF-268 CNS): > 100 µM
- GI50 (BT-549 breast): 10.1 µM
- TGI (BT-549 breast): 23.2 µM
- GI50 (A549 NSCLC): 3.18 µM
- TGI (A549 NSCLC): 18.5 µM
- GI50 (OVCAR-5 ovarian): 3.96 µM
- TGI (OVCAR-5 ovarian): 18.9 µM
- GI50 (HS 578T breast): 0.832 µM
- TGI (HS 578T breast): 5.67 µM
- GI50 (DU-145 prostate): 8.92 µM
- TGI (DU-145 prostate): > 100 µM
- GI50 (MCF7 breast): 3.4 µM
- TGI (MCF7 breast): 17.3 µM
- GI50 (786-0 renal): 6.22 µM
- TGI (786-0 renal): 25.4 µM
- GI50 (SK-MEL-5 melanoma): 4.17 µM
- TGI (SK-MEL-5 melanoma): 15.9 µM
- GI50 (T-47D breast): 2.14 µM
- TGI (T-47D breast): > 100 µM
- GI50 (SNB-75 CNS): 1.24 µM
- TGI (SNB-75 CNS): 5.11 µM
- GI50 (CAKI-1 renal): 3.53 µM
- TGI (CAKI-1 renal): 33.1 µM
- GI50 (RPMI-8226 leukemia): 4.37 µM
- TGI (RPMI-8226 leukemia): 28.4 µM
- GI50 (U251 CNS): 4.85 µM
- TGI (U251 CNS): 17.9 µM
- GI50 (MALME-3M melanoma): 3.71 µM
- TGI (MALME-3M melanoma): 16.6 µM
- GI50 (RXF 393 renal): 0.282 µM
- TGI (RXF 393 renal): 3.71 µM
- GI50 (IGROV1 ovarian): 2.06 µM
- TGI (IGROV1 ovarian): 6.08 µM
- GI50 (KM12 colon): 7.55 µM
- TGI (KM12 colon): 29.8 µM
- GI50 (K-562 leukemia): 0.0575 µM
- TGI (K-562 leukemia): 2.73 µM
- GI50 (MDA-MB-468 breast): 1.84 µM
- TGI (MDA-MB-468 breast): 4.69 µM
- GI50 (TK-10 renal): 15.8 µM
- TGI (TK-10 renal): 32.3 µM
- GI50 (PC-3 prostate): 4.98 µM
- TGI (PC-3 prostate): 46.1 µM
- GI50 (NCI-H23 lung): 6.21 µM
- TGI (NCI-H23 lung): 19.5 µM
- GI50 (HCT-15 colon): 2.82 µM
- TGI (HCT-15 colon): 15.8 µM
